Laboratory results taken from patent publication EP3650451A1, “COMPOUNDS AND THEIR USES AS FLUORESCENT PROBES” (Consejo Superior de Investigaciones Cientificas, priority 2017, dated 2019).

Legend:
Type in all cases: cell-based, human
SCC38 cells [1] = assay: Labeling in the presence of FCCP (depolarized mitochondrial membrane), flow cytometry
Procedure: • Fig. 1. In vivo labeling of SCC38 cells with compound 4 at different concentrations (50, 100 and 500 nM). Scale bar: 10 µm • Fig. 2. Flow cytometry studies in SCC38 and HeLa cell lines labeled with compound 4 and Mito Tracker® Red. Histograms wherein fluorescence intensity vs number of events is represented for each of the staining times (5, 15 and 30 min) and control (Ctrl), for the SCC38 and HeLa cells and for each of the two markers. • Fig. 3. Absorption (A) and fluorescence (B) spectra, normalized to molar absorption and fluorescence quantum yield of probe 4 in different solvents; chloroform (green), acetone (black), acetonitrile (red), ethanol (blue) and water (gray). • Fig. 4. […] (A) Flow cytometry analysis of SCC38 cells incubated in the presence (+FCCP) or absence (-FCCP) of FCCP 60 µM for 3 h before staining with 20 nM of 4 or 0.5 nm of MitoTracker. The data represent the mean fluorescence intensity (MFI) of the stained cells. (B) Microscopy analysis of SCC38 cells pretreated or not with FCCP before co-staining with 20 nM of 4 and 0.5 nm of MitoTracker. The graphs show the fluorescence profiles of the regions of interest indicated with white lines in the right-hand panels. Scale bars: 10 µm). • Fig. 5. […] The data represent the mean fluorescence intensity (MFI) of the stained cells (upper panels) and representative images of the cytometry profiles (lower panels). • Fig. 7. […] (B) The data represent the mean fluorescence intensity (MFI) of the labeled cells.
The labeling was analyzed by flow cytometry in the presence of carbonyl cyanide-p-(trifluoromethoxy)phenylhydrazone (FCCP), a protonophore used to reduce the mitochondrial membrane potential (ΔΨm) through depolarization of the mitochondrial membrane. […] Indeed, the suppression of dye-mitochondria electrostatic attraction as a passive labeling mechanism reduces the concentration of the dye in the cell organelle and, thus, the probability and extent of the fluorescence deactivation processes, with the ensuing increase in their efficiency. […]

SCC38 = assay: Kinetics of cell labeling by flow cytometry
Procedure: (§1) The cell assays were carried out on two human cell lines: SCC38 and HeLa. The SCC38 line is derived from human laryngeal epidermoid carcinoma patients, while HeLa, the first human cell line established in culture, is derived from cervical cancer. The culture medium used for both cell lines was DMEM (Dulbecco's Modified Eagle's Medium) supplemented with 10% of fetal bovine serum (FBS), 100 U/mL of penicillin, 200 µg/mL of streptomycin, 100 µmol/L of non-essential amino acids and 2 mmol/L of glutamine. The cultures were incubated at 37 °C and 5% of CO2.
(§2) The kinetics of cell labeling with 4 was studied by flow cytometry with the SCC38 and HeLa cell lines, using MitoTracker® Red as a control marker, both at a concentration of 50 nM. The staining times studied were 5, 15, 30 and 45 minutes. After staining, the medium was removed, washed with PBS, trypsinized and the pellet was resuspended in 500 µL of PBS and introduced in the cytometer after filtration. A Beckman Coulter Cytomics FC500 Flow Cytometry Analyzer was used (Scientific-Technical Services, Universidad de Oviedo). Part of the resuspended cells were also plated and observed under the microscope.

HeLa = assay: Kinetics of cell labeling by flow cytometry; conditions: 50 nM, staining times 5, 15 and 30 min
Procedure: as §1, §2

SCC38 cells [2] = assay: Co-localization by co-staining with MitoTracker Red, fluorescence microscopy of live cells; conditions: compound 4 50 nM, MitoTracker® Red 25 nM, 30 minutes
Procedure: as §1
These cell lines were stained with the fluorescent probes synthesized following the following protocol: 30,000-50,000 SCC38 cells were plated on 24-well glass-bottomed plates and cultured to 70% confluence. The culture medium was then removed from the well and washed at least three times with DMEM medium without additives. Next, 1 mL of DMEM and the corresponding fluorescent compound was added to the well. The cells were incubated at 37 °C for 30 minutes, after which the medium was removed and newly washed with DMEM. Lastly, complete medium was added and the cells were observed under the microscope. Microscopy analysis was performed using a Zeiss Axio Observer Z1 microscope with AxioCam MRM and ApoTome 2 (Carl Zeiss, Germany) with different 40X 63X oil immersion objectives. The cells were also stained with MitoTracker® Red CMXRos (Thermo Fisher), following the manufacturer's instructions, with the aim of carrying out comparative studies with the new fluorescent markers synthesized herein. Initially, both compounds 3 and 4 were used at a concentration of 50 nM, and staining time was also 30 minutes.
In order to confirm the specificity of the mitochondrial labeling, co-localization studies were carried out by co-staining with the commercial mitochondrial marker MitoTracker® Red in the cell line. Compound 4 was used at a concentration of 50 nM and MitoTracker® Red at 25 nM. Both compounds were added simultaneously and incubated for 30 minutes.

CC1=CC(C)=[N+]2C1=C(c1c(C)cc(C)cc1C)c1c(C)cc(C)n1[B-]21OC(=O)C[C@H](C[N+](C)(C)C)O1 (some centres unmarked) [Compound 4]
labeling of depolarized mitochondria (SCC38 cells [1]; 60 µM FCCP for 3 h at 37 °C): capable of labeling depolarized mitochondria | mitochondrial fluorescence of cells treated with FCCP (SCC38 cells [1]; 60 µM FCCP for 3 h at 37 °C before staining, 20 nM of 4 or 0.5 nM of MitoTracker): increase in fluorescence | change of staining intensity with incubation time (SCC38; SCC38, 50 nM, staining times 5, 15 and 30 min): clearly increased in intensity with incubation time | labeling intensity at longer staining time (SCC38; new cytometry experiment, 45 min versus 30 min, cell line not stated): even more intense than with a time of 30 minutes | change of staining intensity with incubation time (HeLa): clearly increased in intensity with incubation time | location of the stain in the mitochondria (SCC38 cells [2]; co-staining): preferably located in its interior (the mitochondrial matrix) | co-localization with MitoTracker® Red (SCC38 cells [2]; added simultaneously): good co-localization | cytotoxic effects (SCC38 cells [2]; simultaneous co-staining): without interferences or cytotoxic effects
